Data from US20260000645A1, “USE OF EBSELEN OR ONE OF THE DERIVATIVES THEREOF TO TREAT MITOCHONDRIAL PATHOLOGIES OR DYSFUNCTIONS” (ASSOCIATION FRANCAISE CONTRE LES MYOPATHIES, priority 2022, published 2026).

Legend:
[1] = Weight of KO mice lacking the TAZ gene (mouse model of Barth syndrome); format: in vivo; conditions: 10 mg/kg force-fed twice a day from age 51 days, 1 month; vs solvent
Protocol: Mice lacking the TAZ gene (KO model of Barth syndrome) or wild type (WT) gene were force-fed twice a day with 10 mg/kg of Ebselen as of an age of 51 days. The weight was regularly monitored during 1 month of treatment.

[2] = system: fibroblast lines of patients carrying mutations of the nuclear gene NDUFV1; assay: Mitochondrial respiration of NDUFV1 patient fibroblasts (Seahorse XF96); format: cell-based, human; conditions: 48 h exposure
Protocol: EBS was also tested for the ability thereof to restore mitochondrial respiration of fibroblast lines of patients carrying mutations of the nuclear gene NDUFV1 of mitochondrial complex I. The human lines NDUFV1 mimicking the human illnesses related to a mitochondrial deficit of complex I (Leigh's syndrome) are carriers of genetic mutations affecting the gene NDUFV1. These cell lines were cultivated in a DMEM medium containing 1.0 g/L of glucose and 1 mM of sodium pyruvate and 50 μg/ml of uridine (Sigma Aldrich, Lyon, France).
The respiration was measured using a Seahorse XF96 extracellular flow metabolic analyzer in 96 well plates according to the manufacturer's protocol (Agilent Technologies). Deficient cells were exposed for 48 h to different concentrations with a dose response curve associating a range of concentrations from 25 nM to 10 μM. […]
The measurement of the oxygen consumption rate (OCR) was recorded under basal conditions to evaluate the mitochondrial respiratory activity and then the cells were treated sequentially with 4 μg/mL of oligomycin and 1.5 μM of carbonyl cyanide p-(trifluoromethoxy) phenylhydrazone (FCCP) (Sigma-Aldrich). The basal OCR, the respiration related to ATP, the maximum respiratory capacity and the respiration by proton leak were determined. […] Maximum respiratory capacity has been determined as the rate of respiration in the presence of uncoupling FCCP. […]

mutant yeast strain taz1 = assay: Respiratory growth in liquid culture (bioscreen, OD600); format: cell-based, Saccharomyces cerevisiae; conditions: taz1, liquid respiratory medium
Protocol: In order to determine the optimum concentration of EBS leading to the suppression of a respiratory growth defect of the mutant yeast strain, cells undergoing exponential growth were inoculated in fresh Ethanol YPA non-fermentable media supplemented or not supplemented with increasing concentrations of EBS. The growth of cells in the liquid respiratory medium was monitored using the bioscreen system over a period of 80 h during which (OD600 nm) cell densities were sampled every 20 minutes.

[3] = system: mutant yeast strains (cox2, sym1, fmc1, atp6, taz1, shy1, A29G); assay: Halos test: respiratory growth of mutant yeast strains on non-fermentable solid medium; format: cell-based, Saccharomyces cerevisiae; conditions: 30 and 90 nmoles on filter, 28° C. or 36° C., 4 to 5 days
Protocol: Each of the strains of the yeast Saccharomyces cerevisiae used in these examples contain different specific mutations modeling human mutations leading to mitochondrial illnesses. At varying degrees, all these mutant yeast strains have a growth defect when cultivated on a respiratory medium such as ethanol or glycerol at 28° C. or 36° C. (depending on the strain).
• fmc: MC6 MATa ade2-1 his3-11,15 trp1-1 leu2-3,112 ura3-I fmc1: :HIS3 [Δi ER OR] (Schwimmer, C. et al. (2005) J Biol Chem, 280, 30751-30759) for the first screening • MR14 MATa ade2-1 his3-11,15 trp1-1 leu2-3,112 ura3-1 CAN1 arg8::HIS3 ρ+ atp6-L173R or RKY20MATa ade2-1 his3-11,15 trp1-1 leu2-3,112 ura3-1 CAN1 arg8::HIS3 ρ+ atp6-L173P (Rak, M. et al. (2007) J Biol Chem, 282, 34039-34047) for the second screening • taz1Δ: this strain was produced by substituting the open reading framework of TAZ1 by that of TRP1 in the strain W303-1A (MATa ade2-1 ura3-1 his311, 15 trp1-1 leu2-3, 112 can1-100) (from Taffin de Tilques, M. et al. (2017) Dis Model Mech, 10, 439-450) • shy1-G137R: this mutant was produced in the strain CW252 containing the nuclear base of W303 and a mitochondrial gene lacking intron. […]

## O=c1c2ccccc2[se]n1-c1ccccc1 [ebselen, 2-phenyl-1,2-benzisoselenazol-3(2H)-one]
[1]
  weight of KO mice: seemed to take on more weight
[2]
  toxic concentration: > 10 µM
Mutant yeast strain taz1
  active concentration range, lower limit: ≥ 1 nM
  active concentration range, upper limit: ≤ 3 µM
  optimum concentration: 1 µM
Mutant yeast strain taz1; 80 h
  toxic concentration: ≥ 27 µM
[3]
  respiratory growth (halo of improved growth): active on all the mutant strains of yeast tested in a dose dependent manner
